Test results taken from patent US20080287398A1, “COLD MENTHOL RECEPTOR-1 ANTAGONISTS” (priority 2007, published 2008).
Values joined by “and” are separate entries in the source; they are usually repeats but may differ in a detail not shown here. Equal entries are not always repeated. Where two headings read alike, the source gives them in different places.

Biological target: T1, canine TRPM8 (Canis lupus familiaris, UniProt Q1A7N1)
T1 construct: expressed in transfected cells
Assay: In vitro canine TRPM8 functional assay (Ca2+-sensitive dye, FLIPR/FDSS, icilin activation)
Type: cell-based
Settings: HEK293 cells expressing canine TRPM8, icilin activation; for % I (1 μM): 1 μM compound; for IC50: eight-point dose-response; for % I (0.5 μM): 0.5 μM compound; for inhibition at 1 µM: HEK293, read-out: % I (1 μM), 1 μM compound
Protocol: The functional activity of compounds of Formula (I) was determined by measuring changes in intracellular calcium concentration using a Ca^2+-sensitive fluorescent dye. The changes in fluorescent signal were monitored by a fluorescence plate reader, either a FLIPR™ (Molecular Devices) or FDSS (Hamamatsu).
HEK293 cells stably expressing canine TRPM8 were routinely grown as monolayers in Dulbecco's minimum essential medium supplemented with 10% FBS, 1 mM L-glutamine, 100 units/mL penicillin, 100 ug/mL streptomycin and 400 μg/mL G418. Cells were maintained in 5% CO2 at 37° C. At 24 hrs prior to assay, cells were seeded in clear-base poly-D-lysine coated 384-well plates (BD Biosciences, NJ, USA) at a density of 5,000 cells per well in culture medium and grown overnight in 5% CO2 at 37° C. On assay day, growth media was removed and cells were loaded with Calcium 3 Dye (Molecular Devices) for 35 min at 37° C., under 5% CO2 and then for 25 min at room temperature and atmosphere. Subsequently, cells were tested for agonist-induced increases in intracellular Ca^2+ levels using FLIPR™ or FDSS. Cells were challenged with a compound of Formula (I) (at varying concentrations) and intracellular Ca^2+ was measured for 5 min prior to the addition of icilin to all wells to achieve a final concentration which produces approximately an 80% maximal response.
Basal FI was subtracted prior to normalizing data to percent of maximal response. Curves were generated using the average of quadruplicate wells for each data point, were analyzed using nonlinear regression of either sigmoidal dose response or sigmoidal dose response (variable slope). Finally, the EC50 and IC50 values were calculated with the best-fit dose curve determined by GraphPad Prism.

[1] = HEK293, read-out: % I (0.5 μM), 0.5 μM compound

T1 sequence (Q1A7N1 1-1104): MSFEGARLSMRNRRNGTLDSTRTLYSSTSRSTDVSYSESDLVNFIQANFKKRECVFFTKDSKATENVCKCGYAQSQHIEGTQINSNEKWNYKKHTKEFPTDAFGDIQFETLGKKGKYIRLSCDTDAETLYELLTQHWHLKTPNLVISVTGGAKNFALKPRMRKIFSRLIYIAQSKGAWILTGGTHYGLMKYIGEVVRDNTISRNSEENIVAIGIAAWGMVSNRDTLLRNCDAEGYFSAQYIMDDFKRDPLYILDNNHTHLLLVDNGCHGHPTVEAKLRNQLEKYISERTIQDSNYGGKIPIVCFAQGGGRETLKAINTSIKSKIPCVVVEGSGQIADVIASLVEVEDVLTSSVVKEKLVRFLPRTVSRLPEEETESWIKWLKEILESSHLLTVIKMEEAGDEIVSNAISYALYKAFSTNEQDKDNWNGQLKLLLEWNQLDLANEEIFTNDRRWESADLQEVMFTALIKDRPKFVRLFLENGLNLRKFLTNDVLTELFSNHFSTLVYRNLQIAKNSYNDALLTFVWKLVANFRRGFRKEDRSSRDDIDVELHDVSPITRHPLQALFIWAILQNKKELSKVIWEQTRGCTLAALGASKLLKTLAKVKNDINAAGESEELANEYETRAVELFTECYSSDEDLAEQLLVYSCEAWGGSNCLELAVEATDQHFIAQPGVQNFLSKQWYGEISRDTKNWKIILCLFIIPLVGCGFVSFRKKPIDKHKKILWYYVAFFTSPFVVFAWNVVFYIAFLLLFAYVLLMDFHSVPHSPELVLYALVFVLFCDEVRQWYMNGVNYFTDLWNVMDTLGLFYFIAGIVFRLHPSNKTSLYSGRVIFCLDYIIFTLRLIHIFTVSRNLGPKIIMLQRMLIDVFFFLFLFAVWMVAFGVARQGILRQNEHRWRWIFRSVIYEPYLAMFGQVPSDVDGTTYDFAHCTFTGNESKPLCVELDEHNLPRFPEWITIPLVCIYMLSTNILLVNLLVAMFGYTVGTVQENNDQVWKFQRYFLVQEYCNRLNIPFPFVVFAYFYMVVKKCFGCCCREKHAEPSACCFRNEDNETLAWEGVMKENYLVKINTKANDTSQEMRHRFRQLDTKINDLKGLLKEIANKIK

Row | Compound | IC50 (read-out: IC50) | % I (0.5 μM) | other results
1 | CCOP(=O)(CC(C)C)C(Cc1ccc(F)c(F)c1)c1sc2ccccc2c1C (stereo not drawn) [Cpd 6, [2-(3,4-Difluoro-phenyl)-1-(3-methyl-benzo[b]thiophene-2-yl)-ethyl]-isobutyl-phosphonic acid ethyl ester] | 0.028 µM | – | % I (1 μM): 100%
2 | CCOP(=O)(OCC)C(Cc1cccc(Br)c1)c1sc2ccccc2c1Cl (stereo not drawn) [Cpd 275] | 0.104 µM | 103% | –
3 | CCOP(=O)(OCC)C(Cc1ccc(F)c(F)c1)c1sc2cc(F)ccc2c1C (stereo not drawn) [Cpd 16, [2-(3,4-Difluoro-phenyl)-1-(6-fluoro-3-methyl-benzo[b]-thiophene-2-yl)-ethyl]-phosphonic acid diethyl ester] | – | – | inhibition at 1 µM: 100%; IC50 (IC50 (μM)): 0.057 µM and 0.064 µM
4 | CC(C)OP(=O)(OC(C)C)C(Cc1cccc(Cl)c1F)c1sc2ccccc2c1Br (stereo not drawn) [Cpd 267] | 0.047 µM and 0.029 µM | – | % I (1 μM): 101% and 102%
5 | CCOP(=O)(OCC)C(Cc1ccc(C(F)(F)F)c(F)c1)c1sc2ccccc2c1Br (racemic) [Cpd 144] | 0.058 µM | 101% | –
6 | CC(C)OP(=O)(OC(C)C)C(Cc1cc(C(F)(F)F)ccc1Cl)c1sc2ccccc2c1Cl (stereo not drawn) [Cpd 178] | 0.355 µM | 79% | –
7 | CCOP(=O)(OCC)C(Cc1cc2c(cc1Cl)OCO2)c1cc2ccccc2s1 (stereo not drawn) [Cpd 112] | – | – | % I (1 μM): 42%
8 | CCOP(=O)(OCC)C(Cc1ccc(F)c(C(F)(F)F)c1)c1sc2cccc(F)c2c1Br (racemic) [Cpd 223] | 0.052 µM | 102% | –
9 | CCOP(=O)(OCC)C(Cc1ccccc1Cl)c1sc2ccccc2c1Cl (stereo not drawn) [Cpd 269] | 0.162 µM | 102% | –
10 | CCOP(=O)(OCC)C(Cc1cc(C(F)(F)F)ccc1Cl)c1sc2ccccc2c1Br (racemic) [Cpd 148] | 0.172 µM | 103% | –
11 | CCOP(=O)(OCC)C(Cc1c(F)c(F)c(O)c(F)c1F)c1sc2ccccc2c1Br (racemic) [Cpd 228] | 0.129 µM | 94% | –
12 | CC(C)OP(=O)(OC(C)C)C(Cc1cc(F)cc(F)c1)c1cc2ccccc2s1 (stereo not drawn) [Cpd 121] | 0.35 µM | – | % I (1 μM): 103%
13 | CCCS(=O)(=O)n1c(C(Cc2ccc(F)c(C(F)(F)F)c2)P(=O)(OC(C)C)OC(C)C)c(Br)c2ccccc21 (stereo not drawn) [Cpd 332] | – | 72% | –
14 | CC(C)OP(=O)(OC(C)C)/C(=C/c1ccc(F)c(F)c1)c1sc2ccccc2c1Br [Cpd 334, (E)-[1-(3-Bromo-benzo[b]thiophen-2-yl)-2-(3,4-difluoro-phenyl)-vinyl]-phosphonic acid diisopropyl ester] | 0.11 µM | – | inhibition at 0.5 µM (HEK293, 0.5 μM compound, read-out: % I (0.5 μM)): 97%
15 | CCOP(=O)(OCC)C(Cc1ccc(F)c(F)c1)c1sc2ccccc2c1-c1ccc(F)nc1 (stereo not drawn) [Cpd 130, {2-(3,4-Difluoro-phenyl)-1-[3-(6-fluoro-pyridin-3-yl)-benzo[b]thiophen-2-yl]-ethyl}-phosphonic acid diethyl ester] | – | – | inhibition at 1 µM: 100%; IC50 (IC50 (μM)): 0.11 µM
16 | CCOP(=O)(OCC)C(Cc1ccccc1F)c1sc2ccccc2c1CN(C)C (stereo not drawn) [Cpd 114, [1-(3-Dimethylaminomethyl-benzo[b]thiophen-2-yl)-2-(2-fluoro-phenyl)-ethyl]-phosphonic acid diethyl ester] | – | – | inhibition at 1 µM: 15%
17 | CCOP(=O)(OCC)C(Cc1cccc(C(F)(F)F)c1Cl)c1sc2ccccc2c1Br (racemic) [Cpd 151] | 0.12 µM | 103% | –
18 | CC(C)OP(=O)(OC(C)C)C(Cc1cc(F)cc(F)c1)c1sc2ccccc2c1Br (stereo not drawn) [Cpd 193] | 0.059 µM | – | % I (1 μM): 103%
19 | CCOP(=O)(OCC)C(Cc1ccc(Cl)c(Cl)c1)c1sc2ccccc2c1Br (stereo not drawn) [Cpd 24, [1-(3-Bromo-benzo[b]thiophen-2-yl)-2-(3,4-dichloro-phenyl)-ethyl]-phosphonic acid diethyl ester] | – | – | inhibition at 1 µM: 100%; IC50 (IC50 (μM)): 0.107 µM
20 | CCOP(=O)(OCC)C(Cc1ccc(C(F)(F)F)cc1F)c1sc2ccccc2c1Cl (racemic) [Cpd 291] | 0.156 µM | 103% | –
21 | CCOP(=O)(Cc1cc2ccccc2s1)OCc1ccc(F)cc1 (stereo not drawn) [Cpd 107] | 1.3 µM | – | % I (5 μM) (5 μM compound): 99%
22 | CCOP(=O)(OCC)C(Cc1ccc(OC(F)(F)F)c(Cl)c1)c1sc2ccccc2c1Cl (stereo not drawn) [Cpd 271] | 0.104 µM | 103% | –
23 | CCOP(=O)(OCC)C(Cc1ccc(Cl)c(Cl)c1)c1cc2ccccc2s1 (stereo not drawn) [Cpd 78, [1-Benzo[b]thiophen-2-yl-2-(3,4-dichloro-phenyl)-ethyl]-phosphonic acid diethyl ester] | – | – | inhibition at 1 µM: 95%; IC50 (IC50 (μM)): 0.43 µM
24 | CCOP(=O)(OCC)C(Cc1cc(C(F)(F)F)ccc1Cl)c1sc2ccccc2c1Cl (stereo not drawn) [Cpd 274] | 0.301 µM | 95% | –

Row | Compound | IC50 (read-out: IC50) | % I (0.5 μM) | other results
25 | CCOP(=O)(CC(C)C)C(Cc1ccc(F)c(F)c1)c1sc2ccccc2c1C (stereo not drawn) [Cpd 36, [2-(3,4-Difluoro-phenyl)-1-(3-methyl-benzo[b]thiophene-2-yl)-ethyl]-isobutyl-phosphonic acid ethyl ester] | 0.126 µM | – | % I (1 μM): 100%
26 | CC(C)OP(=O)(OC(C)C)C(Cc1ccc(F)c(F)c1)c1sc2ncccc2c1Br (racemic) [Cpd 207] | 0.051 µM | 99% | –
27 | CCOP(=O)(OCC)C(Cc1ccc(S(=O)(=O)C(F)(F)F)cc1)c1sc2ccccc2c1Br (stereo not drawn) [Cpd 262] | 0.066 µM | 103% | –
28 | CCOP(=O)(OCC)C(Cc1ccc(F)c(F)c1)c1sc2ncccc2c1Br (stereo not drawn) [Cpd 132, 1-[(3-Bromo-thieno[2,3-b]pyridin-2-yl)-2-(3,4-difluoro-phenyl)-ethyl]-phosphonic acid diethyl ester] | – | – | inhibition at 1 µM: 102%; IC50 (IC50 (μM)): 0.11 µM
29 | CC(C)OP(=O)(OC(C)C)C(Cc1ccc(C(F)(F)F)cc1)c1sc2ccccc2c1Cl (stereo not drawn) [Cpd 175] | 0.072 µM | 104% | –
30 | CSc1ccc(CC(c2sc3ccccc3c2Br)P(=O)(OC(C)C)OC(C)C)cc1 (stereo not drawn) [Cpd 251] | 0.045 µM | 103% | –
31 | CCOP(=O)(OCC)C(Cc1cccc(Cl)c1Cl)c1sc2ccccc2c1C (stereo not drawn) [Cpd 35] | 0.125 µM | – | % I (1 μM): 100%
32 | CCOP(=O)(OCC)C(Cc1ccccc1O)c1sc2ccccc2c1Br (stereo not drawn) [Cpd 323] | 0.009 µM | 104% | –
33 | CCOP(=O)(OCC)C(Cc1cccc([N+](=O)[O-])c1)c1sc2ccccc2c1Br (stereo not drawn) [Cpd 315] | – | – | inhibition at 0.5 µM [1]: 103%; IC50 (IC50 (μM)): 0.041 µM
34 | CC(C)OP(=O)(OC(C)C)C(Cc1cc(F)cc(Cl)c1)c1sc2ccccc2c1Cl (stereo not drawn) [Cpd 186] | 0.051 µM | 104% | –
35 | CCOP(=O)(OCC)C(Cc1ccc(F)cc1C(F)(F)F)c1sc2ccccc2c1Br (racemic) [Cpd 245] | 0.124 µM | 103% | –
36 | CCOP(=O)(OCC)C(Cc1ccc(OC(F)F)cc1)c1sc2ccccc2c1Br (stereo not drawn) [Cpd 311] | 0.053 µM | 102% | –
37 | CC(C)OP(=O)(OC(C)C)C(Cc1ccc(F)c(C(F)(F)F)c1)c1cc2ccccc2s1 (stereo not drawn) [Cpd 125] | 0.39 µM | – | % I (1 μM): 103%
38 | CCOP(=O)(OCC)C(Cc1ccc(F)c(F)c1)c1cc2cccnc2s1 (stereo not drawn) [Cpd 131] | – | – | % I (1 μM): 28%
39 | CCOP(=O)(OCC)C(Cc1ccccc1C(F)(F)F)c1cc2ccccc2s1 (stereo not drawn) [Cpd 102] | 0.75 µM | – | % I (1 μM): 86%
40 | CC(C)OP(=O)(OC(C)C)C(Cc1cc(Cl)ccc1F)c1sc2ccccc2c1Br (racemic) [Cpd 308] | 0.017 µM | 103% | –
41 | CC(C)OP(=O)(OC(C)C)C(Cc1ccc(Cl)cc1)c1sc2ccccc2c1Br (racemic) [Cpd 288] | 0.065 µM | 103% | –
42 | CC(=O)n1c(C(Cc2ccc(F)c(C(F)(F)F)c2)P(=O)(OC(C)C)OC(C)C)c(Br)c2ccccc21 (stereo not drawn) [Cpd 331] | 0.152 µM | 101% | –
43 | CC(C)OP(=O)(OC(C)C)C(Cc1cccc(F)c1F)c1cc2ccccc2s1 (stereo not drawn) [Cpd 122] | 0.35 µM | – | % I (1 μM): 102%
44 | COc1ccc(CC(c2sc3ccccc3c2Br)P(=O)(OC(C)C)OC(C)C)cc1C(F)(F)F (stereo not drawn) [Cpd 326] | 0.086 µM and 0.051 µM | 103% and 102% | –
45 | CCOP(=O)(OCC)C(Cc1cccc(N)c1)c1sc2ccccc2c1Br (stereo not drawn) [Cpd 318, [2-(3-Amino-phenyl)-1-(3-bromo-benzo[b]thiophen-2-yl)-ethyl]-phosphonic acid diethyl ester] | – | – | inhibition at 0.5 µM [1]: 100%; IC50 (IC50 (μM)): 0.211 µM
46 | CCOP(=O)(OCC)C(Cc1c(Cl)cccc1Cl)c1sc2ccccc2c1C (stereo not drawn) [Cpd 54] | 0.23 µM | – | % I (1 μM): 100%
47 | CC(C)OP(=O)(OC(C)C)C(Cc1ccc(F)c(C(F)(F)F)c1)c1sc2cccc(F)c2c1Br (racemic) [Cpd 222] | 0.033 µM | 103% | –
